Experimental data: patent publication US10221178B2, “Purine inhibitors of human phosphatidylinositol 3-kinase delta” (MERCK SHARP & DOHME CORP., priority 2015, dated 2019)

Key:
PI3Kdelta = PI3Kdelta (Homo sapiens (Human), UniProt O00329); test: HTRF PI3K biochemical assay, delta isoform; details: 0.3 nM enzyme, 100 uM ATP, 5 uM PIP2, form screened: Neutral
Text: (§1) HTRF PI3K Biochemical Assay to Measure Intrinsic Potency of Compound Inhibitors
(§2) The PI3-Kinase biochemical assays were developed to measure the intrinsic potency and compound dependent inhibition of the alpha, beta, delta, and gamma PI3K isoform enzymes.
(§3) This assay was developed and further optimized from a kit produced by Upstate (Millipore catalog #33-047) and has been configured for HTS (high throughput screening) and SAR screening. Briefly, this procedure exploits the exquisite specificity and high affinity binding of enzyme reaction substrate phosphatidyl(3,4,5)triphosphate (PIP3) to the GRP1 pleckstrin homology (PH) domain to generate the signal. In the absence of PIP3, an HTRF (Homogeneous Time-Resolved Fluorescence energy transfer) complex is formed consisting of europium (Eu)-labeled anti-GST, GSTtagged GRP1-PH domain, biotin-PIP3 and streptavidin conjugated APC. The native PIP3 produced by PI3-Kinase activity disrupts in a competitive manner the biotin-PIP3 from the PH domain, resulting in the loss of energy transfer (HTRF complex) and a decrease in the signal. The format of this assay is the same for all 4 isoforms of PI3K; the differences lie in the concentration of enzyme used to achieve robust assay window. The alpha, beta, and delta assays are run at 0.5, 1, and 0.3 nM enzymes and the gamma assay is run at 5 nM enzyme. The ATP concentration is 100 uM in the alpha, beta, and delta assays and 50 uM ATP in the gamma assay. All reactions are run at 5 uM PIP2.
(§4) Compounds are serially diluted (3-fold in 100% DMSO) across a 384-well polypropylene source plated from column 3 to column 12 and column 13 to column 22, to yield 10 concentration dose response for each test compound. Columns 1, 2, 23 and 24 contain either only DMSO or pharmacological known control inhibitor. Once titrations are made, 2.5 nL of the compounds on 384 well plates are reformatted and transferred by acoustic dispense in quadruplicates to a 1536 assay plate (Greiner) to assay across all four PI3K isoform enzymes.
(§5) The PI3-Kinase biochemical assay was optimized using the HTRF kit provided by Upstate (Millipore). The assay kit contains six reagents: 1) 4× Reaction Buffer; 2) native PIP2 (substrate); 3) Stop (EDTA); 4) Detection Mix A (Streptavidin-APC); 5) Detection Mix B (Eu-labeled Anti-GST plus GST-tagged PH-domain); 6) Detection Mix C. In addition, the following items were obtained or purchased; PI3Kinase (alpha 14-602, beta 14-603, gamma 14-558 and delta 14-604 from Upstate; Millipore), dithiothreitol (Sigma, D-5545), Adenosine-5′ triphosphate (InVitrogen, Cat#AS001A), native PIP3 (PI(3,4,5)P3, diC8, H^+, CELLSIGNALS, INC. Cat #907) DMSO (Sigma, 472301).
(§6) PI3Kinase Reaction Buffer is prepared by dilution the stock 1:4 with de-ionized water. DTT, PIP2 and Biotin-PIP3 were added to 1536 assay plate at a final concentration of 5 mM, […] on the day of use. Enzyme addition and compound pre-incubation are initiated by the addition of 1.25 ul of PI3K (at twice its final concentration) in the 1× reaction buffer to all wells using a BioRaptor. Plates are incubated at RT for 15 minutes. Reactions are initiated by addition of 1.25 ul of 2× substrate solution (PIP2 and ATP in 1× reaction buffer) using BioRaptor. Plates are incubated in humidified chamber at RT for one hour. Reactions are quenched by addition of 0.625 uL of stop solution to all wells using the BioRaptor. The quenched reactions are then processed to detect product formation by adding 0.625 uL of Detection Solution to all wells using the BioRaptor (Detection mix C, Detection Mix A, and Detection Mix B combined together in an 18:1:1 ratio prepared 2 hours prior to use). Following a one hour incubation in the dark, the HTRF signal is measured on the Envision plate reader set for 330 nm excitation and dual emission detection at 620 nM (Eu) and 665 nM (APC).

PI3Kalpha = PI3Kalpha (Homo sapiens (Human), UniProt P42336); test: HTRF PI3K biochemical assay, alpha isoform (selectivity versus PI3Kalpha); details: relative ratio (PI3K-alpha IC50 value/PI3K-delta IC50 value); form screened: Neutral
Sequence of PI3Kalpha (P42336 whole entry, canonical isoform): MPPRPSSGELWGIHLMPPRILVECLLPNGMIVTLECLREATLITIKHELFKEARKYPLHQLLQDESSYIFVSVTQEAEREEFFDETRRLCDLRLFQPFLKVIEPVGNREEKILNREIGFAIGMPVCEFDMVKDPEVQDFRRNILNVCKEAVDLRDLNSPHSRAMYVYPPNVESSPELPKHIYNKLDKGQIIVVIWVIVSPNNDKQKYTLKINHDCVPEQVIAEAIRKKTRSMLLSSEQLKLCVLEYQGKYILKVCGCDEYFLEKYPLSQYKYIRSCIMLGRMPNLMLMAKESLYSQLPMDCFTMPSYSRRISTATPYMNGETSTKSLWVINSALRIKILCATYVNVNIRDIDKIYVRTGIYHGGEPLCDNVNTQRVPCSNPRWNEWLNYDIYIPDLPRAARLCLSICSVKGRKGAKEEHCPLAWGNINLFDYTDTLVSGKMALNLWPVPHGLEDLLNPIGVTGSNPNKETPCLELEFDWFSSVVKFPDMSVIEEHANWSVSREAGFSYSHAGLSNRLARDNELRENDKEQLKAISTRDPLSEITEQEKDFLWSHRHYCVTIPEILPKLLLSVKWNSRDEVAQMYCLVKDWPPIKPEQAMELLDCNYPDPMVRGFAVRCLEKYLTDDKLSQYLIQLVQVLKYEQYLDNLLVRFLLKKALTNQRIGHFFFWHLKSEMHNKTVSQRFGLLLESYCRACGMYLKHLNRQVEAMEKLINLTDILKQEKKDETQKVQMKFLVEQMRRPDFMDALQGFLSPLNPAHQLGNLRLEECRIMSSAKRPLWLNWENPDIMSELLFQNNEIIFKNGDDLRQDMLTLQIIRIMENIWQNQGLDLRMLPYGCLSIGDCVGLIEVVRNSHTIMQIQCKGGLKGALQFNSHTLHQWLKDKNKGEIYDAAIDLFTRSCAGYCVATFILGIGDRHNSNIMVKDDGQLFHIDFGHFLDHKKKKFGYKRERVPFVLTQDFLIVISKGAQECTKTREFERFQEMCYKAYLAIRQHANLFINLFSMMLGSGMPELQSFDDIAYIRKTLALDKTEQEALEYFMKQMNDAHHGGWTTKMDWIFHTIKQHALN
Sequence of PI3Kalpha (P27986 whole entry partner, canonical isoform): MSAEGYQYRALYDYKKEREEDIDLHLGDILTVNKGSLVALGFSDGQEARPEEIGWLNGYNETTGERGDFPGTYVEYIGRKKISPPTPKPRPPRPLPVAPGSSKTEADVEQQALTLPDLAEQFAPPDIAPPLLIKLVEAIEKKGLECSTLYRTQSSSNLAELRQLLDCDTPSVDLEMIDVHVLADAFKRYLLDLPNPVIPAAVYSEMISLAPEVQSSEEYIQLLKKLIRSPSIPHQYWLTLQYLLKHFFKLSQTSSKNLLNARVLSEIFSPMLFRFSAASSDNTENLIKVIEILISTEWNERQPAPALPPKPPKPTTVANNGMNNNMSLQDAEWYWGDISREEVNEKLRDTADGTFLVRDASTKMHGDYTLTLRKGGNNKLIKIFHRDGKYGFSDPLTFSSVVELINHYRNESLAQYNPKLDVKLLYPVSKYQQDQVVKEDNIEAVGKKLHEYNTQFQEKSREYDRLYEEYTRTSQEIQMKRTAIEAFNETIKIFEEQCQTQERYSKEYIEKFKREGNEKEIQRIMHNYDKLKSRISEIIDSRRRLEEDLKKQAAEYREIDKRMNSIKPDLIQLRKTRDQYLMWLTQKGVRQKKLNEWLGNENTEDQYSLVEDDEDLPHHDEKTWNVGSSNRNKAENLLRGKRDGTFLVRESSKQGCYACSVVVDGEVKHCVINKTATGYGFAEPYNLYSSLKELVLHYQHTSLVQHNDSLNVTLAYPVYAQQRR
Text: as §1, §2, §3, §4, §5
as §6, with “[…]. […]” for “(APC).”

Sequence of PI3Kdelta (O00329 whole entry, canonical isoform): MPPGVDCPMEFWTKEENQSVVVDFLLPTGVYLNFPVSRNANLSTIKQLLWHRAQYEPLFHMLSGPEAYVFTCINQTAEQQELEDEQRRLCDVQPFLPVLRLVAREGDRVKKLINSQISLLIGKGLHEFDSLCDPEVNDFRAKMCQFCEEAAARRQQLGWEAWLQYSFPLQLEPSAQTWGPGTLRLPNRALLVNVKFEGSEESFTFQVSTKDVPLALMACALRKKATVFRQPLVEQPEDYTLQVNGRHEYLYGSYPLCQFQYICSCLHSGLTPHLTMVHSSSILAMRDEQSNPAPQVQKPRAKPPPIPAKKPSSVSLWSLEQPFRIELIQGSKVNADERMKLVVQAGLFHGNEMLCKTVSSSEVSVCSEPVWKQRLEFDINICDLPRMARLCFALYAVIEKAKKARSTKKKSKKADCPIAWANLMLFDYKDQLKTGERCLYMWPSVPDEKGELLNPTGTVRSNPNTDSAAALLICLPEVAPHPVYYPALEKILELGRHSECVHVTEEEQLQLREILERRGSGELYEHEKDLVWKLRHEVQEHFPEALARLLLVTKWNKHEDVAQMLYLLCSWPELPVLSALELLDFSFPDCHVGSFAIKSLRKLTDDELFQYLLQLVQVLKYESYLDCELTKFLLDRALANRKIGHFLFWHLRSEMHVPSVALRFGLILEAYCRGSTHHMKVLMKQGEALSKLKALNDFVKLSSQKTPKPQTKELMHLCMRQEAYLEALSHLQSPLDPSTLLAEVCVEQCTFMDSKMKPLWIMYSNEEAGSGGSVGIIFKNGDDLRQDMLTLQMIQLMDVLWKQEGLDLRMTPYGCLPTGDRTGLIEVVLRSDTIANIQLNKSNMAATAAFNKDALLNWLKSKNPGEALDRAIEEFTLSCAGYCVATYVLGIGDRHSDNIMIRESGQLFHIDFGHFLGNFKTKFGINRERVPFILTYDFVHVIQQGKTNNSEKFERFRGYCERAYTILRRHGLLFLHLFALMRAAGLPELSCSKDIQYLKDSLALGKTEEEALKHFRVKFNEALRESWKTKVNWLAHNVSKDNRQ
Sequence of PI3Kdelta (P27986 whole entry partner, canonical isoform): as the sequence (P27986 whole entry partner, canonical isoform) above

| Compound | IC50 (PI3Kdelta) [nM] | Selectivity versus PI3Kalpha (PI3Kalpha) |
| --- | --- | --- |
| CCn1c(-c2cnc(C)nc2)nc2c(NCC3(C(=O)N4CCCC4)CC3)ncnc21 [Compound 2-61, 9-ethyl-8-(2-methylpyrimidin-5-yl)-N-{[1-(pyrrolidin-1-ylcarbonyl)cyclopropyl]methyl}-9H-purin-6-amine] | 93 | >10 |
| CCC(Nc1ncnc2c1nc(-c1cnn(CC)c1C)n2C)C(=O)N1CCC(F)(F)CC1 (racemic) [Compound 1-5, (R and S)-N-{1-[(4,4-difluoropiperidin-1-yl)carbonyl]propyl}-8-(1-ethyl-5-methyl-1H-pyrazol-4-yl)-9-methyl-9H-purin-6-amine] | 9 | >10 |
| CCn1c(-c2cnc(C)nc2)nc2c(N[C@@H](C)CC(=O)N3CCCC3)ncnc21 [Compound 2-59, 9-ethyl-N-[(1S)-1-methyl-3-oxo-3-pyrrolidin-1-ylpropyl]-8-(2-methylpyrimidin-5-yl)-9H-purin-6-amine] | 63 | >10 |
| CCC(Nc1ncnc2c1nc(-c1cnc(C)nc1)n2CC)C(=O)N1CC(O)(C2CC2)C1 (single isomer, unassigned) [Compound 4-1, (S or R)-3-cyclopropyl-1-(2-{[9-ethyl-8-(2-methylpyrimidin-5-yl)-9H-purin-6-yl]amino}butanoyl)azetidin-3-ol] | 30 | >10 |
| CC[C@H](Nc1ncnc2c1nc(-c1cnc(C)nc1)n2CC)C(=O)N1CC2(CCCC2)C1 [Compound 2-21, N-[(1S)-1-(2-azaspiro[3.4]oct-2-ylcarbonyl)propyl]-9-ethyl-8-(2-methylpyrimidin-5-yl)-9H-purin-6-amine] | 14 | >10 |
| CCn1c(-c2cnc(C)nc2)nc2c(NC[C@@H](C)C(=O)N3CCCC3)ncnc21 [Compound 2-60, 9-ethyl-N-[(2R)-2-methyl-3-oxo-3-pyrrolidin-1-ylpropyl]-8-(2-methylpyrimidin-5-yl)-9H-purin-6-amine] | 29 | >10 |
| CCn1ncc(-c2nc3c(NC(C)C(=O)N4CCOCC4)ncnc3n2C)c1C (single isomer, unassigned) [Compound 1-7, (R or S)-8-(1-ethyl-5-methyl-1H-pyrazol-4-yl)-9-methyl-N-(1-methyl-2-morpholin-4-yl-2-oxoethyl)-9H-purin-6-amine] | 24 | >10 |
| CC[C@H](Nc1ncnc2c1nc(-c1cnc(C)nc1)n2CC)C(=O)N1CCOCC1CO (mixture of isomers) [Compound 2-37, {4-[(2S)-2-{[9-ethyl-8-(2-methylpyrimidin-5-yl)-9H-purin-6-yl]amino}butanoyl]-(R and S)-morpholin-3-yl}methanol] | 64 | >10 |

Results, then the compound that gave them:

| IC50 (PI3Kdelta) [nM] | Selectivity versus PI3Kalpha (PI3Kalpha) | Compound |
| --- | --- | --- |
| 20 | >10 | CCn1c(-c2cnc(C)nc2)nc2c(NC[C@@H](C)C(=O)N3C[C@@H](C)O[C@@H](C)C3)ncnc21 [Compound 2-55, N-{(2R)-3-[(cis)-2,6-dimethylmorpholin-4-yl]-2-methyl-3-oxopropyl}-9-ethyl-8-(2-methylpyrimidin-5-yl)-9H-purin-6-amine] |
| 39 | >10 | CC[C@H](Nc1ncnc2c1nc(-c1cnc(C)nc1)n2CC)C(=O)N1CCOC(COC)C1 (stereo partly drawn) [Compound 2-35, 9-ethyl-N-[(1S)-1-{[2-(methoxymethyl)morpholin-4 yl]carbonyl}propyl]-8-(2-methylpyrimidin-5-yl)-9H-purin-6-amine] |
| 31 | >10 | CC[C@H](Nc1ncnc2c1nc(-c1cnc(C)nc1)n2CC)C(=O)N1CCC(C)C1 (mixture of isomers) [Compound 2-18, 9-ethyl-8-(2-methylpyrimidin-5-yl)-N-{(1S)-1-[((S and R)-3-methylpyrrolidin-1-yl)carbonyl]propyl}-9H-purin-6-amine] |
| 4.1 | >10 | CCn1c(-c2cnc(C)nc2)nc2c(N[C@H](C(=O)N3C[C@@H](C)O[C@@H](C)C3)C(C)C)ncnc21 [Compound 2-49, N-[(1S)-1-{[(cis)-2,6-dimethylmorpholin-4-yl]carbonyl}-2-methylpropyl]-9-ethyl-8-(2-methylpyrimidin-5-yl)-9H-purin-6-amine] |
| 24 | >10 | CCn1c(-c2cnc(C)nc2)nc2c(NCC3(C(=O)N4C[C@@H](C)O[C@@H](C)C4)CC3)ncnc21 [Compound 2-57, N-[(1-{[(cis)-2,6-dimethylmorpholin-4-yl]carbonyl}cyclopropyl)methyl]-9-ethyl-8-(2-methylpyrimidin-5-yl)-9H-purin-6-amine] |
| 21 | >10 | CC[C@H](Nc1ncnc2c1nc(-c1cnc(C)nc1)n2CC)C(=O)N1CCCOCC1 [Compound 2-25, 9-ethyl-8-(2-methylpyrimidin-5-yl)-N-[(1S)-1-(1,4-oxazepan-4-ylcarbonyl)propyl]-9H-purin-6-amine] |
| 140 | >10 | CCn1c(-c2cnc(C)nc2)nc2c(N[C@@H](CC(C)C)C(=O)N3C[C@@H](C)O[C@@H](C)C3)ncnc21 [Compound 2-44, N-[(1S)-1-{[(cis)-2,6-dimethylmorpholin-4-yl]carbonyl}-3-methylbutyl]-9-ethyl-8-(2-methylpyrimidin-5-yl)-9H-purin-6-amine] |
| 12 | >10 | CCn1c(-c2cnc(C)nc2)nc2c(N[C@@H](CO)C(=O)N3C[C@@H](C)O[C@@H](C)C3)ncnc21 [Compound 2-47, (2S)-3-[(cis)-2,6-dimethylmorpholin-4-yl]-2-{[9-ethyl-8-(2-methylpyrimidin-5-yl)-9H-purin-6-yl]amino}-3-oxopropan-1-ol] |
| 250 | >10 | CCn1c(-c2cnc(C)nc2)nc2c(NC[C@H](C)C(=O)N3C[C@@H](C)O[C@@H](C)C3)ncnc21 [Compound 2-54, N-{(2S)-3-[(cis)-2,6-dimethylmorpholin-4-yl]-2-methyl-3-oxopropyl}-9-ethyl-8-(2-methylpyrimidin-5-yl)-9H-purin-6-amine] |
| 420 | >10 | CCn1c(-c2cnc(C)nc2)nc2c(N[C@@H](CN(C)C)C(=O)N3C[C@@H](C)O[C@@H](C)C3)ncnc21 [Compound 2-51, (2S)-3-[(cis)-2,6-dimethylmorpholin-4-yl]-N-2-[9-ethyl-8-(2-methylpyrimidin-5-yl)-9H-purin-6-yl]-N-1-,N-1-dimethyl-3-oxopropane-1,2-diamine] |
